Laboratory results: patent US20240358727A1, “MICROSCALE THERMOPHORESIS TO EVALUATE CHANNEL LIPID INTERACTIONS AND METHODS OF TREATING NAV CHANNELS RELATED DISEASES” (Northeastern University, priority 2023, published 2024)
Entries after “also recorded” stand apart in the source; their conditions may differ.

What was measured:
Nav1.4 = biological target: T1, Nav1.4 (Rattus norvegicus, UniProt P15390); assay: Whole-cell patch clamp of rNav1.4 + Navβ1 in HEK293T cells with optogenetic PI-phosphatases and diC8PI(4,5)P2 in the pipette; assay type: cell-based; settings: for ILATE: % of IPEAK
T1 construct: expressed in transfected cells; host or cells: HEK293T (ATCC CRL-3216)
Text: Purified diC8PI(4,5)P2 was purchased from Echelon Biosciences. For oocyte studies, plasmid vectors were linearized after the Xenopus β-globulin domain of each construct, verified by gel electrophoresis, and transcribed in vitro using the mMESSAGE mMACHINE T7 Transcription Kit (Thermo Fisher Scientific) to generate cRNA according to the manufacturer's protocol. Rat Nav1.4 (SCN4 Å; NM_013178.2) was handled in pBud, a CMV driven vector. To study Nav1.4 currents, the plasmid was used in concert with Navβ1 (SCN1B, isoform b; NM_001037) in pRAT, a CMV driven vector. The inactivation deficient mutant, Nav1.4-WCW was handled in pCap. CRY2-Sac2 was subcloned into pMAX(+) for expression in mammalian cells, or the generation of cRNA for use in Xenopus oocytes. The open reading frame of pseudojanin was designed with an N-terminal CRY2-tag in the pMAX(+) vector and was generated by Genscript (Piscataway, NY).
Human embryonic kidney (HEK293T) cells were acquired from American Type Culture Collection (ATCC, Cat #CRL-3216) and were maintained in Dulbecco's modified Eagle's medium (ATCC) supplemented with 100 units/ml penicillin, 100 μg/ml streptomycin, and 10% (vol/vol) fetal bovine serum. Cells were routinely confirmed to be mycoplasma free via PCR and Hoescht stain. The cells were incubated in a 37° C., humified incubator supplemented with 5% CO2. For our experiments, cells were seeded on glass coverslips in 35 mm culture dishes at least one day before transfection. Cells were transiently transfected with rNav1.4, Navβ1, CIBN-CAAX and CRY2-5-PtaseOCRL or CRY2-pseudojanin, along with the near-infrared PI(4,5)P2 biosensor iRFP-PHPLCδ1 as indicated, in OptiMEM using polyethyleneimine (PEI) for 1-2 hours at a ratio of 1 μg of DNA to 4 μL PEI. The near red fluorescent protein, mCherry, was typically used as a transfection marker. The cells were studied 24-48 hours after transfection.
Whole-cell patch clamp. HEK293T cells were studied by whole cell patch-clamp. Currents were recorded with a Tecella Pico-2 amplifier (Tecella) controlled using WinWCP software (University of Strathclyde). Currents were low pass (Bessel) filtered at 9 kHz and digitized at 50 kHz. […] The cells were perfused using a multichannel gravity-driven perfusion manifold (Warner) with an extracellular solution containing (in mM): 130 NaCl, 5 CsCl, 1.2 MgCl2·6H2O, 1.5 CaCl2), 8 Glucose, 10 HEPES. Data was collected from cells with a series resistance less than 15 MQ. The junction potential was less than 3 mV and was not compensated.
Current-voltage (I-V) relationships were evoked from a holding potential of −90 mV by 400 ms test pulses between −80 and 50 mV, in 5 mV increments. Steady-state inactivation was studied by holding the cells at −140 mV and then comparing currents evoked by 50 ms test pulses between −140 mV and 30 mV to those evoked by a 100 ms prepulse to […]. A 10 s interpulse interval was used in both cases. Normalized peak current values are plotted against the prepulse potential (mV). To quantify voltage-dependence, the data were normalized, plotted against the driving force to generate normalized conductance-voltage relationships (G-V) that were fit using a Boltzmann function, I=IMAX/(1+exp[V−V ½/K]), where IMAX is the maximum current and K is the slope factor. Recovery from fast inactivation was studied by holding cells at −100 mV and comparing currents evoked by a pair of 50 ms test step to −30 mV separated by an interpulse interval that increased in duration by 5 ms increments per sweep. The time constant for recovery from inactivation (τinact) was obtained from mono-exponential fits of the normalized current amplitude to the recovery time using It=Imax+A[e^−t/τ], where ‘A’ is the amplitude of components and ‘t’ is time. Whole-cell currents were normalized to cell capacitance. Mean±SEM capacitance values were 12±4 pF for HEK293T cells. […]

Nav1.5-K1493E = biological target: T2, Nav1.5-K1493E (Homo sapiens, UniProt Q14524, K1493E); assay: Whole-cell ILATE of Nav1.5-K1493E with CRY2-5ptase; assay type: cell-based; settings: 200 μM diC8-PI(4,5)P2 in pipette
T2 construct: expressed in transfected cells; HEK293T
Text: FIGS. 31A-31D show representative currents from Nav1.5-K1493E showing enhanced ILATE that is further augmented by activation of CRY2-5ptase.
Multiple dysrhythmic disorders are associated with mutations in Nav1.5. Nav1.5-E1784K is the most common variant and is associated with LQT3, BrS, and sinus node dysfunction. E1784K is in the proximal C-terminal domain where it disrupts an interaction with K1493 (DIII-DIV linker) that alters channel gating and increases ILATE. The complementary mutation, K1493E also augments ILATE. […] These findings indicate a potential role for PI(4,5)P2 in the mechanism of, at least some, Nav1.5 disease mutants.

[1] = 200 μM diC8-PIP2 in patch pipette
[2] = 200 μM diC8PI(4,5)P2, CRY2-PJ cells
[3] = 200 μM diC8PI(4,5)P2 vs CRY2-PJ BL
[4] = CRY2-5POCRL, BL + 200 μM diC8PI(4,5)P2
[5] = CRY2-5POCRL, Control + 200 μM diC8PI(4,5)P2
[6] = CRY2-PJ, BL + 200 μM diC8PI(4,5)P2
[7] = CRY2-PJ, Control + 200 μM diC8PI(4,5)P2

T1 sequence (P15390 whole entry): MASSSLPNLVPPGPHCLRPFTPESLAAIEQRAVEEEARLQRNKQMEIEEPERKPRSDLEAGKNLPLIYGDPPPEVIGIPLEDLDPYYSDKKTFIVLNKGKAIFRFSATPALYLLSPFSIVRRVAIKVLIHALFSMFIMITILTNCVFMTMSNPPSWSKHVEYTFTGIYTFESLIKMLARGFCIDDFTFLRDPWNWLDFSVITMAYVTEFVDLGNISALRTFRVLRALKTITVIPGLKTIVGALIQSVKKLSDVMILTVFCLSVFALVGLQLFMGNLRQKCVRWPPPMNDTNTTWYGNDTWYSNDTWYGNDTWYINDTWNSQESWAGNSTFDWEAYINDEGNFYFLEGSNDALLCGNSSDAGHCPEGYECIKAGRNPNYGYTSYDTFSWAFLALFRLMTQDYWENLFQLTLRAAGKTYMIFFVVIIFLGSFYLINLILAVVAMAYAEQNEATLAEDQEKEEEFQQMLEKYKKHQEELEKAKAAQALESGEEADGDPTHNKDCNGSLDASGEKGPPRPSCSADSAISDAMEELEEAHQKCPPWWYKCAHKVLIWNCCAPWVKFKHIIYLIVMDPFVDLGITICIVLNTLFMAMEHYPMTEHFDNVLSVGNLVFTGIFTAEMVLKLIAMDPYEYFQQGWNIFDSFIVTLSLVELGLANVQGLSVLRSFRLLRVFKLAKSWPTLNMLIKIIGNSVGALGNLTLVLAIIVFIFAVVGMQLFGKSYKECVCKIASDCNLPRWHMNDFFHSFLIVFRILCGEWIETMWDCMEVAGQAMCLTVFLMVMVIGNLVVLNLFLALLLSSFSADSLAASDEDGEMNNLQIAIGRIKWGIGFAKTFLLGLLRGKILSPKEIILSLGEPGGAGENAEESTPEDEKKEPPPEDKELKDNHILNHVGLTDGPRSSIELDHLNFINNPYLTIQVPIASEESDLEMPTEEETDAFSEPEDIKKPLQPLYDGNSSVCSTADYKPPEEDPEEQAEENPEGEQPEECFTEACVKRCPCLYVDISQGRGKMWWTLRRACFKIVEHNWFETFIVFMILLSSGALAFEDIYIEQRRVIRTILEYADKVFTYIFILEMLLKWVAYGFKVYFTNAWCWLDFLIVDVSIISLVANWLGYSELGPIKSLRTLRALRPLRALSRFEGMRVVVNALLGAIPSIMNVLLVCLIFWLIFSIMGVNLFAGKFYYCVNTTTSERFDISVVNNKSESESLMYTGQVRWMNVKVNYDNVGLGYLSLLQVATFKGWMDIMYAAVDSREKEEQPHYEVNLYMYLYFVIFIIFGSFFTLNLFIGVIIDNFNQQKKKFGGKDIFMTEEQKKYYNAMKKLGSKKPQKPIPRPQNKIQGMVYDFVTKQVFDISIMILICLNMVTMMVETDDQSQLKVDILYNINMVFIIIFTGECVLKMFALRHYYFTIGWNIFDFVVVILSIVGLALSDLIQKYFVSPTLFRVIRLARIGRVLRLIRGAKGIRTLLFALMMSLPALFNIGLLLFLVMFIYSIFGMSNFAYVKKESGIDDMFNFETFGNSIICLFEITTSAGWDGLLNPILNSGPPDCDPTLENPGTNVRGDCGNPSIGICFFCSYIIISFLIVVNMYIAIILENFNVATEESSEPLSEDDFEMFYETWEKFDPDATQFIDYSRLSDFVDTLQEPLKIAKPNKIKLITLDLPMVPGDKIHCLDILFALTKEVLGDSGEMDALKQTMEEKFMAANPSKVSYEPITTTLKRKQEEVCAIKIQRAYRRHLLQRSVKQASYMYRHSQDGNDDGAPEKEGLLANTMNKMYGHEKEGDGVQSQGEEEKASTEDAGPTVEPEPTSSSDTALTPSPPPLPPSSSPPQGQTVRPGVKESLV
T1 sequence (Q07699 19-218 partner): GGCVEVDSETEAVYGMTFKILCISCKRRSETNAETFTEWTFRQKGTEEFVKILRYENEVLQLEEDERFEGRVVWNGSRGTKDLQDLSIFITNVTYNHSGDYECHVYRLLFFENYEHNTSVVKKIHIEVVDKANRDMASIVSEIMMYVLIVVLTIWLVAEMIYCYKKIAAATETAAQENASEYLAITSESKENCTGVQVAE

## CCCCCCCC(=O)OC[C@H](COP(=O)(O)O[C@@H]1[C@H](O)[C@H](O)[C@@H](OP(=O)(O)O)[C@H](OP(=O)(O)O)[C@H]1O)OC(=O)CCCCCCC [diC8-PIP2]
Nav1.4; [1]
  effect on V½ACT of Nav1.4: rightward shift
  effect on V½SSI of Nav1.4: no effect
Nav1.4; 200 μM diC8PI(4,5)P2
  effect on CRY2-5POCRL effects on voltage-dependent gating: precluded
  effect on CRY2-PJ photoactivation effects on V½act: ameliorated
Nav1.4; 200 μM diC8PI(4,5)P2, CRY2-5POCRL cells
  right shift in V½act: ~5 mV
Nav1.4; 200 μM diC8PI(4,5)P2, CRY2-PJ
  effect on increase in the magnitude of the window current: abolished
Nav1.4; [2]
  right-shift in V½SSI compared to untreated cells: ~3 mV
  right-shift in V½act compared to untreated cells: −5.5 mV
Nav1.4; 200 μM diC8PI(4,5)P2 vs CRY2-5POCRL BL
  overall excursion in mean V½ACT between diC8PI(4,5)P2 treated cells and control cells after photoactivation: −12.5±3 mV
Nav1.4; [3]
  change in mean V½act between diC8PI(4,5)P2 treated cells and control cells after dephosphorylation: −16±2 mV
  shift in mean V½SSI between diC8PI(4,5)P2 treated cells and control cells after dephosphorylation: −5.4±2 mV
Nav1.4; [4]
  KAct: 5.2 ± 0.3 mV
  KSSI: −5.1 ± 1^ mV
  V½SSI: −57 ± 1 mV
  V½act: −32 ± 1 mV
  tau (fast inactivation): 7.4 ± 0.6 ms
  ILATE: 0.27 ± 0.02%
Nav1.4; CRY2-5POCRL, BL + 200 μM diC8PI(4,5)P2, −20 mV
  IPEAK: −268 ± 25 pA/pF
Nav1.4; CRY2-5POCRL, BL + 200 μM diC8PI(4,5)P2, −40 mV
  IPEAK: −202 ± 21 pA/pF
Nav1.4; CRY2-5POCRL, BL + 200 μM diC8PI(4,5)P2, −60 mV
  IPEAK: −19 ± 4 pA/pF
Nav1.4; [5]
  KAct: 5.0 ± 0.2 mV
  KSSI: −5.0 ± 2^ mV
  V½SSI: −58 ± 2 mV
  V½act: −32 ± 1 mV
  tau (fast inactivation): 6.0 ± 0.3 ms
  ILATE: 0.26 ± 0.02%
Nav1.4; CRY2-5POCRL, Control + 200 μM diC8PI(4,5)P2, −20 mV
  IPEAK: −274 ± 32 pA/pF
Nav1.4; CRY2-5POCRL, Control + 200 μM diC8PI(4,5)P2, −40 mV
  IPEAK: −186 ± 28 pA/pF
Nav1.4; CRY2-5POCRL, Control + 200 μM diC8PI(4,5)P2, −60 mV
  IPEAK: −23 ± 6 pA/pF
Nav1.4; [6]
  KAct: 5.0 ± 1.0 mV
  KSSI: −5.1 ± 0.5 mV
  V½SSI: −54 ± 2 mV
  V½act: −33 ± 4 mV
  tau (fast inactivation): 5.1 ± 0.3 ms
  ILATE: 0.38 ± 0.03%
Nav1.4; CRY2-PJ, BL + 200 μM diC8PI(4,5)P2, −20 mV
  IPEAK: −272 ± 24 pA/pF
Nav1.4; CRY2-PJ, BL + 200 μM diC8PI(4,5)P2, −40 mV
  IPEAK: −209 ± 22 pA/pF
Nav1.4; CRY2-PJ, BL + 200 μM diC8PI(4,5)P2, −60 mV
  IPEAK: −23 ± 3 pA/pF
Nav1.4; [7]
  KAct: 4.0 ± 0.7 mV
  KSSI: −4.2 ± 1.0 mV
  V½SSI: −55 ± 4 mV
  V½act: −33 ± 3 mV
  tau (fast inactivation): 4.7 ± 0.2 ms
Nav1.4; CRY2-PJ, Control + 200 μM diC8PI(4,5)P2, −20 mV
  IPEAK: −264 ± 18 pA/pF
Nav1.4; CRY2-PJ, Control + 200 μM diC8PI(4,5)P2, −40 mV
  IPEAK: −194 ± 24 pA/pF
Nav1.4; CRY2-PJ, Control + 200 μM diC8PI(4,5)P2, −60 mV
  IPEAK: −19 ± 2 pA/pF
Nav1.4; CRY2-PJ, Control + 200 μM diC8PI(4,5)P2, pulse to −20 mV
  ILATE: 0.37 ± 0.1%
Nav1.5-K1493E
  effect on Nav1.5-K1493E ILATE: abolishes; also recorded: opposes
  effect on further increase in ILATE on activation of CRY2-5ptase: precluded
